In article PMC10180520, “Phytochemical Analysis and Profiling of Antioxidants and Anticancer Compounds from Tephrosia purpurea (L.) subsp. apollinea Family Fabaceae” (Molecules, 2023):
In brackets after ≈: the same amount, converted by molar mass.

What was measured:
[1] = ABTS radical scavenging assay; assay type: biochemical
Description: Distilled water was used to bring up a 50-mL volumetric flask to mark after dissolving 192 mg of 2,2′-azino-bis(3-ethylbenzothiazoline-6-sulfonic acid) (ABTS) in a small volume of water and transferring it to the flask, followed by addition of 1 mL of this solution to 17 μL 0.14 M K2S2O8, and incubation in darkness for 24 h. To prepare the final ABTS dilution for the T. purpurea subsp. apollinea extract, 1 mL of reaction mixture was added to 49 mL of methanol. Then, 0.190 mL of newly made ABTS solution was mixed with 0.010 mL of plant extract in a 96-well plate and kept in the dark for 30 min. Thereafter, a decrease in ABTS OD was read at 734 nm in a FluoStar Omega microplate reader. Trolox was used as an antioxidant standard. All the values were measured in triplicate.

[2] = DPPH radical scavenging assay; assay type: biochemical
Description: Each methanolic extract concentration (1 mL) was added to 3 mL of 0.1 mM DPPH solubilized in methanol, followed by shaking and placing it into a dark chamber for 30 min. When DPPH reacts with an H-donating antioxidant, it is scavenged, thereby resulting in a decrease in absorbance. The optical density of each concentration was measured at 517 nm in a UV-Vis spectrophotometer. Ascorbic acid was used as an antioxidant standard. All the values were measured in triplicate.

[3] = system: osteosarcoma (MG63); experiment: MTT assay, osteosarcoma (MG63); assay type: cell-based
Description: (§1) Breast cancer cell lines (MCF7), osteosarcoma (MG63), breast ductal carcinoma (T47D), leukemia (U937), as well as HeLa, PC3, and healthy pulmonary fibroblast were supplied by the tissue culture laboratory at Vacsera, Egypt. The culturing procedure was maintained sterile, utilizing a laminar airflow cabinet. The cells were cultured in Roswell Park Memorial Institute medium (RPMI 1640). The medium was provided with antibiotics (streptomycin and penicillin) as well as antifungal agents (amphotericin B) and L-glutamine. It was also supplemented with 10% heat-inactivated fetal bovine serum.
(§2) Cell viability was measured using a 3-(4,5-dimethylthiazol-2-yl)-2,5-diphenyl-2H-tetrazolium bromide (MTT) assay. The principle of the MTT assay is that through mitochondrial reduction, purple-colored crystals are produced from the yellowish MTT [80]. […]
(§3) Using a growth medium, serial dilutions of the dimethyl sulfoxide (DMSO)-solubilized extract were produced at concentrations of 31.25, 62.5, 125, 250, 500, and 1000 µg/mL [80]. […] A microplate reader was used to measure the optical density of the formazan solution at 560 nm, with values corrected using a background reference λ of 620 nm. […]
(§4) The IC50 profiles of methanol extract of T. purpurea subsp. apollinea and a positive control for cancer and healthy cell lines were determined with GraphPad Prism version 7 (GraphPad Software Inc., San Diego, CA, USA). […]

[4] = system: PC3; experiment: Light microscopy of treated cells, PC3; assay type: cell-based; details: PC3, 250 µg/mL (Figure 8)
Description: (§5) Morphologies of cells treated with the various methanol T. purpurea subsp. apollinea extract concentrations were investigated under light microscopy at 10× objective lens, total magnification = 100×.

[5] = system: cervical cancer (HeLa); experiment: MTT assay, cervical cancer (HeLa); assay type: cell-based
Description: as §1, §2, §3, §4

[6] = system: normal human fetal lung fibroblast (WI38); experiment: MTT assay, normal human fetal lung fibroblast (WI38); assay type: cell-based; details: WI-38, WI38 normal cells, 24 h
Description: as §1, §2, §3, §4

[7] = system: breast cancer (MCF7); experiment: MTT assay, breast cancer (MCF7); assay type: cell-based
Description: as §1, §2, §3, §4

[8] = system: MG63; experiment: Light microscopy of treated cells, MG63; assay type: cell-based; details: MG63, 250 µg/mL (Figure 8)
Description: as §5

[9] = system: MCF7; experiment: Light microscopy of treated cells, MCF7; assay type: cell-based; details: MCF7, 250 µg/mL (Figure 8)
Description: as §5

[10] = system: prostate cancer (PC3); experiment: MTT assay, prostate cancer (PC3); assay type: cell-based
Description: as §1, §2, §3, §4

[11] = system: leukemia (U937); experiment: MTT assay, leukemia (U937); assay type: cell-based
Description: as §1, §2, §3, §4

[12] = system: HeLa; experiment: Light microscopy of treated cells, HeLa; assay type: cell-based; details: 250 µg/mL (Figure 8)
Description: as §5

[13] = system: T47D; experiment: Light microscopy of treated cells, T47D; assay type: cell-based; details: 250 µg/mL (Figure 8)
Description: as §5

[14] = system: breast ductal carcinoma (T47D); experiment: MTT assay, breast ductal carcinoma (T47D); assay type: cell-based
Description: as §1, §2, §3, §4

In the case of `Cc1c(C)c2c(c(C)c1O)CCC(C)(C(=O)O)O2` (centres unmarked) [Trolox], the “ABTS Scavenging%” value ([1]; Conc. 0.6 µg/mL) is reported as 9.9 ± 0.3%, the “ABTS Scavenging%” value ([1]; Conc. 1.3 µg/mL) is reported as 18.6 ± 0.4% and the “ABTS Scavenging%” value ([1]; Conc. 3.8 µg/mL) is reported as 49.6 ± 2.6%. The “ABTS Scavenging%” value ([1]; Conc. 6.2 µg/mL) was 83.6 ± 1.9%, the “ABTS Scavenging%” value ([1]; Conc. 8.8 µg/mL) was 92.6 ± 0.2% and the “IC50 of ABTS radical scavenging” value ([1]; mean ± standard deviation) was “^a IC50 = 2.9 ± 0.1 μg/mL”.

In the case of `O=C1O[C@H]([C@@H](O)CO)C(O)=C1O` [Ascorbic Acid, Ascorbic acid], the “DPPH Scavenging%” value ([2]; Conc. 1.95 µg/mL) is reported as 41.8 ± 0.5%, the “DPPH Scavenging%” value ([2]; Conc. 3.9 µg/mL) is reported as 45.9 ± 0.1% and the “DPPH Scavenging%” value ([2]; Conc. 7.8125 µg/mL) is reported as 56.2 ± 0.2%. For the same molecule, the “DPPH Scavenging%” value ([2]; Conc. 15.625 µg/mL) was 64.2 ± 0.3%, the “DPPH Scavenging%” value ([2]; Conc. 31.25 µg/mL) was 71.2 ± 0.2% and the “DPPH Scavenging%” value ([2]; Conc. 62.5 µg/mL) was 77.9 ± 0.3%. The “DPPH Scavenging%” value ([2]; Conc. 125 µg/mL) was 86.4 ± 0.3%, the “DPPH Scavenging%” value ([2]; Conc. 250 µg/mL) was 92.7 ± 0.2% and the “DPPH Scavenging%” value ([2]; Conc. 500 µg/mL) was 94.5 ± 0.2%. The “DPPH Scavenging%” value ([2]; Conc. 1000 µg/mL) was 97.1 ± 0.1% and the “IC50 of DPPH radical scavenging” value ([2]; mean ± standard deviation) was “^a IC50 = 4.8 ± 0.1 μg/mL”.

In the case of `COc1cccc2c1C(=O)c1c(O)c3c(c(O)c1C2=O)C[C@@](O)(C(=O)CO)C[C@@H]3O[C@H]1C[C@H](N)[C@H](O)[C@H](C)O1` [Doxorubicin], the IC50 ([3]; Homo sapiens, MG-63, MG63, MTT, 24 h) is reported as 19 ± 0.3 µg/mL (≈ 35 µM), the “SI (selectivity index)” value ([3]; IC50 for WI38 / IC50 for MG63) is reported as 1.0 and the cell morphology [4] is reported as “rounded and shrunk cells”. For the same molecule, the IC50 ([5]; Homo sapiens, HeLa, MTT, 24 h) was 41.9 ± 0.1 µg/mL (≈ 77.1 µM), the “SI (selectivity index)” value ([5]; IC50 for WI38 / IC50 for HeLa) was 0.4 and the IC50 [6] was 20.1 ± 0.1 µg/mL (≈ 37 µM). The “SI (selectivity index)” value ([7]; IC50 for WI38 / IC50 for MCF7) was 0.5, the IC50 ([7]; MCF7, MTT, 24 h) was 37.4 ± 0.1 µg/mL (≈ 68.8 µM) and the cell morphology [8] was “rounded and shrunk cells”. The cell morphology [9] was “rounded and shrunk cells”, the “SI (selectivity index)” value ([10]; IC50 for WI38 / IC50 for PC3) was 0.4 and the IC50 ([10]; PC3, MTT, 24 h) was 46.3 ± 0.2 µg/mL (≈ 85.2 µM). For the same molecule, the IC50 ([11]; Homo sapiens, U-937, U937, MTT, 24 h) was 41.7 ± 0.9 µg/mL (≈ 76.7 µM), the “SI (selectivity index)” value ([11]; IC50 for WI38 / IC50 for U937) was 0.4 and the cell morphology [12] was “rounded and shrunk cells”. The cell morphology [13] was “rounded and shrunk cells”, the IC50 ([14]; Homo sapiens, T47D, MTT, 24 h) was 7 ± 0.1 µg/mL (≈ 12.9 µM) and the “SI (selectivity index)” value ([14]; IC50 for WI38 / IC50 for T47D) was 2.8.
